{"source": "patent US20130310347A1", "about": "“MULTI-MODALITY MOLECULAR IMAGING HIGH-THROUGHPUT ASSAY FOR IDENTIFYING HEAT SHOCK PROTEIN 90 (HSP90) INHIBITORS” (The Board of Trustees of the Leland Stanford Junior …, priority 2012, published 2013)", "key": {"[1]": {"molecular_target": "T1, Hsp90β/p23 interactions (Homo sapiens, UniProt P08238)", "T1 construct": "expressed in transfected cells; also with FL-eGFP reporter (293Tβ-FG) and as xenografts in nude mice", "T1 sequence (P08238 whole entry)": "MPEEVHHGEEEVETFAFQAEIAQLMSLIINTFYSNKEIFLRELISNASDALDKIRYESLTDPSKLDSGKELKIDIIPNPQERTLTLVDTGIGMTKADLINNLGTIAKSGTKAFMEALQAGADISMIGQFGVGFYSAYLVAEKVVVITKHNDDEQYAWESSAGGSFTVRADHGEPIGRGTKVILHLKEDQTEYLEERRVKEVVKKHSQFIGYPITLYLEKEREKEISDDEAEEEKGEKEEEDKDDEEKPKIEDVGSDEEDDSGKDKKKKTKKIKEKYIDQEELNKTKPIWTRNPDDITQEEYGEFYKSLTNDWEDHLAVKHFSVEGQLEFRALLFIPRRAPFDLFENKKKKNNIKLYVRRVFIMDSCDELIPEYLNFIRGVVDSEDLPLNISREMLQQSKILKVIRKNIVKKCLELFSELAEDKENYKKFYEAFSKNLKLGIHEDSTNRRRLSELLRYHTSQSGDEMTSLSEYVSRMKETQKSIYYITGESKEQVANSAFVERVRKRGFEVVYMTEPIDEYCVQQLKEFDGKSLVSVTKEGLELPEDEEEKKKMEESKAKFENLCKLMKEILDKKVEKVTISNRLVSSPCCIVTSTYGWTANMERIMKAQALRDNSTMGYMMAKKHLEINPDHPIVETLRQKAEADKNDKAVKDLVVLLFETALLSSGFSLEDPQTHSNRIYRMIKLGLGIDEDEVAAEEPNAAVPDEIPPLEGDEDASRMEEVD", "assay": "HTS dose response, 293T cells stably expressing Hsp90β/p23 split RL reporters", "format": "cell-based", "details": "inhibition of bioluminescence signals by 50% vs carrier control; 8 point dose response 0.156-20 μM; 24 h", "protocol": "Novel Hsp90 inhibitors using a commercial 30,176 small molecule chemical compound library with unknown targets and molecular mechanisms (FIG. 9B) were also identified. 293T cells stably expressing Hsp90α/p23 or Hsp90β/p23 split RL reporters were treated with each compound at 8.3 μM.\nBaseline complemented RL activities were determined 90 mins after addition of 20 μl of ENDUREN® (10 μM final concentration) (Promega, Madison, Wis.) using the Analyst GT (Molecular Device, Sunnyvale, Calif.), with an acquisition time of 0.2 sec per well. Cells were incubated with compounds for 24 h prior to re-determination of complemented RL activities, and normalized to the mean RL activities of untreated cells in columns 1-2. Another small molecule chemical library with 30,176 compounds (SPECS, Wakefield, R.I.) was also used in screening modulators of Hsp90(α/β)/p23 inhibitors (at 8.3 μM, one drug per well for initial screening). For dose response/confirmation assay the compounds were tested in duplicate in an 8 point (0.156-20 μM) dose response assay for RL activities for both Hps90(α/β)/p23 interactions. The effect of each compound on cell proliferation at 20 μM was determined using Cell Titer-Blue assay in duplicate wells. […]"}, "[2]": {"tested_on": "Hsp90 client proteins (Raf-1, total and phosphorylated Akt)", "assay": "Western blotting of Hsp90 client proteins in 293T cells", "format": "cell-based, human", "details": "5 μM, 24 h", "protocol": "FIG. 5A is a digital image of a western blot analysis illustrating the effect of lead compounds on the expression of Hsp90 client proteins. 293T cells stably expressing Hsp90(α/β)/p23 split reporters were treated with carrier control or compounds CP1, CP9, or CP18 (5 μM each) for 24 h. The known Hsp90 inhibitor PU-H71 (2 μM) was used as a positive control. The expression of Hsp90 client proteins (Raf-1, total and phosphorylated Akt) was determined by western blotting. α-Tubulin was used as a loading control.\nCells treated with PU-H71 (2 μM) served as a positive control.\nCells treated with 2 μM of PU-H71 served as a positive control. Western blotting of Hsp70, phosphorylated and total Akt and co-immunoprecipitation of Hsp90(α/β)/p23 interactions was performed as described Inglese et al., (2006) Proc. Nat. Acad. Sci. U.S.A. 103: 11473-11478, incorporated herein by reference in its entirety. The expression of Raf-1 was determined using rabbit polyclonal antibodies against Raf-1 (0.5 μg/ml, Abcam)."}, "[3]": {"tested_on": "U87-MG cells", "assay": "Alamar Blue cell proliferation", "format": "cell-based, human", "details": "24 h", "protocol": "FIG. 6A is a series of graphs illustrating the effect of CP9 on cell proliferation determined by an Alamar Blue assay. The indicated cancer cell lines were treated with different concentrations of CP9 for 24 h prior to incubation with Alamar blue for 4 h. The Hsp90 inhibitors PU-H71 and 17AAG were used as positive controls. Emissions at 570 nm in CP9-treated cells were normalized to that of carrier control-treated cells. Results are expressed as normalized cell proliferation±S.E.M.\nCP9 had no effect on proliferation of normal MEFs. Since CP9 led to decrease in phosphorylated Akt (FIGS. 5A and 10A-10C), it was expected to inhibit glucose metabolism through relief of inhibition of glycogen synthase kinase […] (Nair & Olanow (2008) J. Biol. Chem. M707238200; Dandekar et al., (2007) J. Nucl. Med. 48: 602-607)."}, "[4]": {"tested_on": "1975, 2008, HT29 cells", "assay": "3H-FLT cell uptake (mammalian thymidine kinase activities)", "format": "cell-based", "details": "48 h post treatment", "protocol": "FIG. 10D is a graph illustrating the effect of CP9 on mammalian thymidine kinase activities in 1975, 2008, HT29, and MEFs cells as determined by ^3H-FLT cell uptake studies 48 h post treatment. Results were expressed as mean counts per minute/μg protein/initial dose±S.E.M. *, p<0.05 vs. carrier control treated cells.\nTo determine the specificity of CP9 in inhibition of glucose metabolism, normal MEF cells were used as a control.\nTo determine the downstream effects of lead compounds on glucose metabolism, 1.5×10^5 293T, 1975 and 2008 and MEFs cells plated in 24-well plate for 24 h, prior to treatment with different concentrations of CP9 for 24 or 48 h and subsequent incubation with 1 μCi of ^3H-FDG in 500 μl of medium for 1 h at 37° C. Cells treated with 2.5 μM of PU-H71 served as a positive control. The total counts in each sample were normalized to that of the dose added to each well and to the amount of protein, and expressed as mean counts/dose/μg protein±S.E.M. Likewise, the effect of CP9 on cell proliferation was determined using 1 μCi of ^3H-FLT per well after 2 h of incubation at 37° C."}, "[5]": {"assay": "Body weight of treated mice", "format": "in vivo", "details": "43 h; P>0.05"}}}
{"smiles": "Cc1cc(NC(=O)CSc2nc(-c3cccs3)cc(C(F)(F)F)n2)no1", "note": "[CP9, N-(5-methylisoxazol-3-yl)-2-(4-(thiophen-2-yl)-6-(trifluoromethyl)pyrimidin-2-ylthio)acetamide]", "values": [{"measurement": "IC50", "setting": "[1]", "result": 15.3, "unit": "µM"}, {"measurement": "levels of Hsp90 client proteins (pAkt/total Akt, Raf-1)", "setting": "[2]", "result": "more effective than CP18"}, {"measurement": "inhibition of cell proliferation vs PU-H71 and 17-AAG", "setting": "[3]", "result": "more effective than PU-H71 and 17-AAG"}, {"measurement": "3H-FLT uptake in cancer cell lines", "setting": "[4]", "result": "inhibits"}, {"measurement": "body weight vs carrier control-treated mice", "setting": "[5]", "result": "no significant decreases in weight"}]}
